{"source": "patent US20240342273A1", "about": "“IMMUNOTHERAPEUTIC METHOD FOR INCREASING CASHEW TOLERANCE IN A SUBJECT” (DBV Technologies, priority 2021, published 2024)", "key": {"CD62L+/FoxP3+ Tregs": {"test_system": "CD62L+/FoxP3+ Tregs", "test": "Phenotyping of Tregs by FACS in spleen and brachial lymph nodes", "assay_type": "in vivo, mice", "conditions": "after 8 weeks of EPIT; Tregitope co-administered with cashew", "description": "(§1) Sensitized mice were then treated by epicutaneous immunotherapy using Viaskin patches: • 10 mice were treated with viaskin containing excipient (Phosphate buffer 0.1 M+DMSO) • 10 mice were treated with viaskin containing 50 μg cashew protein (Stallergenes Greer, ref XPF84D3A2.5), • 10 mice were treated with viaskin containing 50 μg cashew protein+50 μg T1 • 10 mice were treated with viaskin containing 50 μg cashew protein+50 μg T2 • 10 mice were treated with viaskin containing 50 μg cashew protein+50 μg T3 • 10 mice were treated with viaskin containing 50 μg cashew protein+50 μg T1+50 μg T2+50 μg T3 • 10 mice were treated with viaskin containing 50 μg T1+50 μg T2+50 μg T3 m Tregitopes T1, T2 and T3 correspond to the homologs of human Tregitopes of SEQ ID NO: 1, SEQ ID NO:2 and SEQ ID NO:3, respectively. The N-terminus of the tested peptides was acetylated (CH3(C═O)—) while the C-terminus was amidated (—NH2) to prevent degradation by protease. […]\n(§2) Anaphylactic reactions were characterized by a drop in body temperature and the occurrence of clinical symptoms. […] Cashew-specific IgE, IgG1 and IgG2a were measured by in house ELISA. […]"}, "cashew-sensitized mice": {"test_system": "cashew-sensitized mice", "test": "Oral cashew challenge after 8 weeks of EPIT (anaphylaxis: body temperature, clinical symptoms, mMCP-1)", "conditions": "Tregitope co-administered with cashew allergen extract by epicutaneous route, cashew-sensitized mouse model"}, "[1]": {"test_system": "re-stimulated splenocytes", "test": "In vitro culture of spleen cells with or without cashew stimulation (proliferation, cytokine production)", "assay_type": "cell-based, mice", "conditions": "splenocytes after 8 weeks of EPIT", "description": "as §1, §2"}}, "note": "Entries after “also recorded” stand apart in the source; their conditions may differ."}
{"substance": "T2: mTregitope from IgG1 (CH), EEQFNSTFRSVSELPIMHQ, homolog of human Tregitope SEQ ID NO: 2 (Ac-EEQFNSTFRSVSELPIMHQ-NH2) [Tregitope T2]", "values": [{"measurement": "numbers of CD62L+/FoxP3+ Tregs in skin-draining lymph nodes (FIG. 2B)", "setting": "CD62L+/FoxP3+ Tregs", "result": "increase"}, {"measurement": "numbers of CD62L+/FoxP3+ Tregs in spleens (FIG. 2A)", "setting": "CD62L+/FoxP3+ Tregs", "result": "increase"}, {"measurement": "potentiation of the efficacy of EPIT for providing tolerance to cashew", "setting": "cashew-sensitized mice", "result": "clearly potentiate; also recorded: particularly marked"}, {"measurement": "Th2 cytokines (IL-4) in re-stimulated splenocytes (FIG. 2D)", "setting": "[1]", "result": "down-modulation"}, {"measurement": "cashew specific T-cell proliferation (FIG. 2C)", "setting": "[1]", "result": "reduced"}]}
